Each compound was assayed against human CB1 receptor (hCB1) (Homo sapiens, UniProt P21554).
human CB1 receptor (hCB1), sequence (P21554 whole entry): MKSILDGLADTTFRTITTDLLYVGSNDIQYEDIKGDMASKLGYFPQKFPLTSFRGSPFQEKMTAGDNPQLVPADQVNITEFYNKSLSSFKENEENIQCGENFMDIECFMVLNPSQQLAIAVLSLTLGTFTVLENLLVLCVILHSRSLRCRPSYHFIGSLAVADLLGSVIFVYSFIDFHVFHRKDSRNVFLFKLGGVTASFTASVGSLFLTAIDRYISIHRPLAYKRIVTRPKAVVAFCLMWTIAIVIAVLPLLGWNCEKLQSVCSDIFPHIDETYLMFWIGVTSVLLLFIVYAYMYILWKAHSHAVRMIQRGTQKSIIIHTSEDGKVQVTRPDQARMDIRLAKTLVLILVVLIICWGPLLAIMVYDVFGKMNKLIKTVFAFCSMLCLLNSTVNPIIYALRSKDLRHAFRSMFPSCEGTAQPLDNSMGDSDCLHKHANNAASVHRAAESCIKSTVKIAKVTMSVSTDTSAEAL
Type: cell-based
For `CN1CCCn2c(-c3cc(Cl)ccc3F)nc(C(=O)NC(CN3CCCC3)C(C)(C)C)c2C1` (centres unmarked) [Compound 720, 3-(5-chloro-2-fluorophenyl)-N-(3,3-dimethyl-1-(pyrrolidin-1-yl)butan-2-yl)-8-methyl-6,7,8,9-tetrahydro-5H-imidazo[1,5-a][1,4]diazepine-1-carboxamide], the EC50 was > 10 µM.
`CC(C)(C)[C@H](NC(=O)c1nc(-c2ccccc2)n2c1CNCC2)C(=O)N1CCOCC1` [Compound 733, (S)-N-(3,3-dimethyl-1-morpholino-1-oxobutan-2-yl)-3-phenyl-5,6,7,8-tetrahydroimidazo[1,5-a]pyrazine-1-carboxamide] was tested, and the EC50 was > 10 µM.
`CNC(=O)[C@@H](NC(=O)c1nc(-c2ccccc2C)n2c1CN(C)CCC2)C(C)(C)C` [Compound 647, (S)-N-(3,3-dimethyl-1-(methylamino)-1-oxobutan-2-yl)-8-methyl-3-o-tolyl-6,7,8,9-tetrahydro-5H-imidazo[1,5-a][1,4]diazepine-1-carboxamide] was tested, and the EC50 was > 10 µM.
For `CC(=O)NC[C@@H](NC(=O)c1nc(-c2cc(Cl)ccc2F)n2c1CN(C)CCC2)C(C)(C)C` [Compound 770, (S)-N-(1-acetamido-3,3-dimethylbutan-2-yl)-3-(5-chloro-2-fluorophenyl)-8-methyl-6,7,8,9-tetrahydro-5H-imidazo[1,5-a][1,4]diazepine-1-carboxamide], the EC50 was > 10 µM.
In the case of `CNC(=O)[C@@H](NC(=O)c1nc(-c2cccc(F)c2OC)n2c1CN(C)CCC2)C(C)(C)C` [Compound 657, (S)-N-(3,3-dimethyl-1-(methylamino)-1-oxobutan-2-yl)-3-(3-fluoro-2-methoxyphenyl)-8-methyl-6,7,8,9-tetrahydro-5H-imidazo[1,5-a][1,4]diazepine-1-carboxamide], the EC50 is reported as > 10 µM.
In the case of `CNC(=O)[C@@H]1CCN(C(=O)c2nc(-c3cc(Cl)c(F)cc3F)n3c2CN(C)CCC3)C1` [Compound 808, (R)-1-(3-(5-chloro-2,4-difluorophenyl)-8-methyl-6,7,8,9-tetrahydro-5H-imidazo[1,5-a][1,4]diazepine-1-carbonyl)-N-methylpyrrolidine-3-carboxamide], the EC50 is reported as > 10 µM.
In the case of `CNC(=O)[C@@H](NC(=O)c1nc(-c2cccnc2Cl)n2c1CN(C)CCC2)C(C)(C)C` [Compound 628, (S)-3-(2-chloropyridin-3-yl)-N-(3,3-dimethyl-1-(methylamino)-1-oxobutan-2-yl)-8-methyl-6,7,8,9-tetrahydro-5H-imidazo[1,5-a][1,4]diazepine-1-carboxamide], the EC50 is reported as > 10 µM.
`COC(=O)C1CN(C(=O)c2nc(-c3cc(Cl)c(F)cc3F)n3c2CN(C)CCC3)CCC1=O` (centres unmarked) [Compound 826, methyl 1-(3-(5-chloro-2,4-difluorophenyl)-8-methyl-6,7,8,9-tetrabydro-5H-imidazo[1,5-a][1,4]diazepine-1-carbonyl)-4-oxopiperidine-3-carboxylate] was tested, and the EC50 was > 10 µM.
For `CN1CCCn2c(-c3cc(F)c(F)cc3F)nc(C(=O)NC(C)(C)CO)c2C1` [Compound 765, N-(1-hydroxy-2-methylpropan-2-yl)-8-methyl-3-(2,4,5-trifluorophenyl)-6,7,8,9-tetrahydro-5H-imidazo[1,5-a][1,4]diazepine-1-carboxamide], the EC50 was > 10 µM.
With `CC(C)(C)[C@H](NC(=O)c1nc(-c2ccccc2)n2c1CNCC2)C(=O)NCCF` [Compound 731, (S)-N-(1-(2-fluoroethylamino)-3,3-dimethyl-1-oxobutan-2-yl)-3-phenyl-5,6,7,8-tetrahydroimidazo[1,5-a]pyrazine-1-carboxamide] the EC50 was > 10 µM.
`CN1CCCn2c(-c3cc(F)c(F)cc3F)nc(C(=O)N3CCC4(CCN(C)C4=O)CC3)c2C1` [Compound 788, 2-methyl-8-(8-methyl-3-(2,4,5-trifluorophenyl)-6,7,8,9-tetrahydro-5H-imidazo[1,5-a][1,4]diazepine-1-carbonyl)-2,8-diazaspiro[4.5]decan-1-one] was tested, and the EC50 was > 10 µM.
With `CNC(=O)C1(NC(=O)c2nc(-c3cc(F)c(F)cc3F)n3c2CN(C)CCC3)CCCC1` [Compound 719, 8-methyl-N-(1-(methylcarbamoyl)cyclopentyl)-3-(2,4,5-trifluorophenyl)-6,7,8,9-tetrahydro-5H-imidazo[1,5-a][1,4]diazepine-1-carboxamide] the EC50 was > 10 µM.
With `CNC(=O)[C@@H](NC(=O)c1nc(-c2cnn(S(=O)(=O)c3ccccc3)c2)n2c1CN(C)CCC2)C(C)(C)C` [Compound 776, (S)-N-(3,3-dimethyl-1-(methylamino)-1-oxobutan-2-yl)-8-methyl-3-(1-(phenylsulfonyl)-1H-pyrazol-4-yl)-6,7,8,9-tetrahydro-5H-imidazo[1,5-a][1,4]diazepine-1-carboxamide] the EC50 was > 10 µM.
For `CN1CCCn2c(-c3cc(Cl)c(F)cc3F)nc(C(=O)N3CC[C@H](O)C3)c2C1` [Compound 910, (S)-(3-(5-chloro-2,4-difluorophenyl)-8-methyl-6,7,8,9-tetrahydro-5H-imidazo[1,5-a][1,4]diazepin-1-yl)(3-hydroxypyrrolidin-1-yl)methanone], the EC50 was > 10 µM.
`CNC(=O)[C@@H]1CCN(C(=O)c2nc(-c3cc(F)c(F)cc3F)n3c2CN(C)CCC3)C1` [Compound 758, (R)-N-methyl-1-(8-methyl-3-(2,4,5-trifluorophenyl)-6,7,8,9-tetrahydro-5H-imidazo[1,5-a][1,4]diazepine-1-carbonyl)pyrrolidine-3-carboxamide] was tested, and the EC50 was > 10 µM.
With `CN1CCCn2c(-c3cc(C(F)(F)F)ccc3F)nc(C(=O)N[C@H](C(=O)NCCF)C(C)(C)C)c2C1` [Compound 810, (S)-3-(2-fluoro-5-(trifluoromethyl)phenyl)-N-(1-(2-fluoroethylamino)-3,3-dimethyl-1-oxobutan-2-yl)-8-methyl-6,7,8,9-tetrahydro-5H-imidazo[1,5-a][1,4]diazepine-1-carboxamide] the EC50 was > 10 µM.
In the case of `CNC(=O)[C@@H](NC(=O)c1nc(-c2ccccc2N)n2c1CN(C)CCC2)C(C)(C)C` [Compound 646, (S)-3-(2-aminophenyl)-N-(3,3-dimethyl-1-(methylamino)-1-oxobutan-2-yl)-8-methyl-6,7,8,9-tetrahydro-5H-imidazo[1,5-a][1,4]diazepine-1-carboxamide], the EC50 is reported as > 10 µM.
`CNC(=O)[C@@H](NC(=O)c1nc(-c2ccc(C(F)(F)F)cc2C)n2c1CN(C)CCC2)C(C)(C)C` [Compound 632, (S)-N-(3,3-dimethyl-1-(methylamino)-1-oxobutan-2-yl)-8-methyl-3-(2-methyl-4-(trifluoromethyl)phenyl)-6,7,8,9-tetrahydro-5H-imidazo[1,5-a][1,4]diazepine-1-carboxamide] was tested, and the EC50 was > 10 µM.
For `CNC(=O)[C@@H](NC(=O)c1nc(-c2ccc(C(F)(F)F)cc2C(F)(F)F)n2c1CN(C)CCC2)C(C)(C)C` [Compound 617, (S)-3-(2,4-bis(trifluoromethyl)phenyl)-N-(3,3-dimethyl-1-(methylamino)-1-oxobutan-2-yl)-8-methyl-6,7,8,9-tetrahydro-5H-imidazo[1,5-a][1,4]diazepine-1-carboxamide], the EC50 was > 10 µM.
For `CNC(=O)[C@H]1CCN(C(=O)c2nc(-c3cc(Cl)c(F)cc3F)n3c2CN(C)CCC3)C1` [Compound 809, (S)-1-(3-(5-chloro-2,4-difluorophenyl)-8-methyl-6,7,8,9-tetrahydro-5H-imidazo[1,5-a][1,4]diazepine-1-carbonyl)-N-methylpyrrolidine-3-carboxamide], the EC50 was > 10 µM.
`CNC(=O)[C@@H](NC(=O)c1nc(-c2cc(F)c(F)cc2OC(C)C)n2c1CN(C)CCC2)C(C)(C)C` [Compound 651, (S)-3-(4,5-difluoro-2-isopropoxyphenyl)-N-(3,3-dimethyl-1-(methylamino)-1-oxobutan-2-yl)-8-methyl-6,7,8,9-tetrahydro-5H-imidazo[1,5-a][1,4]diazepine-1-carboxamide] was tested, and the EC50 was > 10 µM.
In the case of `CN1CCCn2c(-c3cc(Cl)c(F)cc3F)nc(C(=O)N3CCC(F)(F)C3)c2C1` [Compound 824, (3-(5-chloro-2,4-difluorophenyl)-8-methyl-6,7,8,9-tetrahydro-5H-imidazo[1,5-a][1,4]diazepin-1-yl)(3,3-difluoropyrrolidin-1-yl)methanone], the EC50 is reported as > 10 µM.
In the case of `CNC(=O)[C@@H](NC(=O)c1nc(C2=CCCCO2)n2c1CN(C)CCC2)C(C)(C)C` [Compound 452, (S)-3-(3,4-dihydro-2H-pyran-6-yl)-N-(3,3-dimethyl-1-(methylamino)-1-oxobutan-2-yl)-8-methyl-6,7,8,9-tetrahydro-5H-imidazo[1,5-a][1,4]diazepine-1-carboxamide], the EC50 is reported as > 10 µM.
With `CNC(=O)[C@@H](NC(=O)c1nc(-c2cnn(CC(C)C)c2)n2c1CN(C)CCC2)C(C)(C)C` [Compound 710, (S)-N-(3,3-dimethyl-1-(methylamino)-1-oxobutan-2-yl)-3-(1-isobutyl-1H-pyrazol-4-yl)-8-methyl-6,7,8,9-tetrahydro-5H-imidazo[1,5-a][1,4]diazepine-1-carboxamide] the EC50 was > 10 µM.
For `CNC(=O)[C@H](CC(C)(C)C)NC(=O)c1nc(-c2ccc(F)c(Cl)c2)n2c1CN(C)CCC2` [Compound 546, (S)-3-(3-chloro-4-fluorophenyl)-N-(4,4-dimethyl-1-(methylamino)-1-oxopentan-2-yl)-8-methyl-6,7,8,9-tetrahydro-5-imidazo[1,5-a][1,4]diazepine-1-carboxamide], the EC50 was > 10 µM.
In the case of `CC1CCN(CC(C)(C)NC(=O)c2nc(-c3cc(Cl)c(F)cc3F)n3c2CN(C)CCC3)CC1` [Compound 880, 3-(5-chloro-2,4-difluorophenyl)-8-methyl-N-(2-methyl-1-(4-methylpiperidin-1-yl)propan-2-yl)-6,7,8,9-tetrahydro-5H-imidazo[1,5-a][1,4]diazepine-1-carboxamide], the EC50 is reported as > 10 µM.

— patent US8431565B2 (priority 2007, dated 2013)
